Assay results: patent publication US20240000698A1, “COMPOSITION COMPRISING FERMENTED EXTRACT FROM PINE FOR PREVENTING SKIN WRINKLE, IMPROVING SKIN BARRIER FUNCTION, PREVENTING HAIR LOSS, PROMOTING HAIR GROWTH AND IMPROVING HAIR HEALTH AND METHOD FOR MANUFACTURING THE SAME” (TaedamBio Co., Ltd., priority 2022, published 2024)

Test: DPPH free radical scavenging activity measurement test
Type: biochemical
Protocol: The free radical scavenging activity measurement test was conducted using 2,2-diphenyl-1-picrylhydrazyl (DPPH) to evaluate the free radical scavenging activity contained in active oxygen, which is one of the antioxidant effects on the fermented pine tree extract obtained by the above method (testing institution: Korea Testing and Research Institute, test number: TNK-2022-000242). The fermented pine extract was prepared at 5, 10, 20, and 30% concentrations using ethanol, and as a positive control material, L-Ascorbic acid was weighed, and was prepared at concentrations of 0.0005, 0.001, 0.0015, and 0.002% using distilled water. Ethanol was used to prepare DPPH at concentrations of 0.2 mM. 100 μL of the preparations for each concentration were dispensed into a 96-well plate, 0.2 mM DPPH and 100 μL of Ethanol were added, and reacted at room temperature for 30 minutes in a light-shielding state, and then absorbance was measured at 517 nm wavelength. The DPPH free radical scavenging activity (%) was calculated using the following formula. Each experimental result was measured three times to calculate the mean and standard deviation, and the confidence interval was set at 95%. [formula] [formula]

O=C1O[C@H]([C@@H](O)CO)C(O)=C1O [positive control substance, L-Ascorbic acid]
IC50 (concentration representing 50% activity) (DPPH free radical scavenging): 0.0013% | DPPH free radical scavenging activity (positive control 0.0015% in distilled water): 57.25% | DPPH free radical scavenging activity (positive control 0.002% in distilled water): 77.39%
